Laboratory results taken from patent US20110294737A1, “TERMINALLY-DIFFERENTIATED ANUCLEATE PLATELET PROGENY GENERATION” (priority 2008, published 2011).
Entries after “also recorded” stand apart in the source; their conditions may differ.

Key:
[1] = system: endogenous reverse transcriptase (RT) activity in platelets; assay: Reverse transcriptase activity assay in platelet lysates (reverse transcription of MS2 phage RNA); assay type: biochemical, human; conditions: platelet lysates incubated with compound at 37° C. for 120 minutes; nevirapine 100, 500, 750 μM; 9-cis retinoic acid 0.1, 1, 10 μM
Procedure: Reverse Transcriptase Activity Assay (FIGS. 10A-C and FIGS. 11A-C). The reverse transcriptase (RT) activity assay was performed as previously described^22 with minor modifications. […] MS2 phage RNA was subsequently added to the lysates and reverse transcription of MS2 phage RNA by platelet lysates or a commercial RT (Thermoscript, Invitrogen, Eugene, Oreg.) was determined.

[2] = system: human platelets; assay: Platelet morphology: formation of extensions with new cell bodies (progeny) in suspension-cultured platelets; assay type: cell-based; conditions: platelets 1×10^5 per mm^3 cultured in suspension for 6 hours; nevirapine 750 μM; 9-cis retinoic acid 1 and 10 μM
Procedure: Platelet Isolation and Culture. Whole blood was centrifuged at 150×g for 20 minutes to obtain platelet-rich plasma (PRP). Residual leukocytes were removed from the PRP by CD45+ bead selection as previously described^1, 6. The negatively selected platelets were resuspended in serum-free M199 culture medium at 37° C. in a humidified 5% CO2 atmosphere. For select studies, platelets were resuspended in fresh human plasma. […] Unless otherwise indicated, the washed platelets were cultured in suspension using round-bottom polypropylene tubes (Becton Dickinson, Franklin Lakes, N.J.). Platelets were suspended at 100,000/μl.
Platelet Morphology and Protein Expression. Freshly-isolated or aged platelets were either fixed immediately to assess baseline morphology, or after 6 hours of suspension culture as described above.
For studies that used fixed platelets, paraformaldehyde (4%) was added directly to the suspension culture as previously described^1, 6, 26 in order to maintain the native morphology of the cells. The fixed platelets (10,000 total for each sample) were subsequently layered onto coverslips coated with Vectabond™ (Vector Laboratories, Burlingame, Calif.) using a cytospin centrifuge (Shandon Cytospin, Thermo Fisher Scientific, Waltham, Mass.). To determine the number of platelets with extensions and distinct cell bodies, fixed cells were counterstained with Alexa Fluor® 488 phalloidin (A12379; Invitrogen, Eugene, Oreg.), a high-affinity probe for F-actin, and/or an Alexa Fluor® 555 (W32464; Invitrogen) conjugate of wheat germ agglutinin (WGA). Three random fields were captured from each independent experiment and at least 500 total cells, which encompassed individual platelets with two or more distinct cell bodies, were counted (FIG. 1H and FIG. 1I).

[3] = system: human platelets; assay: Surface P-selectin expression of cultured platelets with new cell bodies after agonist activation (immunostaining); assay type: cell-based; conditions: after 6 hours culture; ADP (2 μM) or thrombin (0.005 U/ml) for 1 minute
From the text: For protein localization studies by immunocytochemistry (ICC), fixed cells were stained with antibodies directed against αIIbβ3 and Annexin V (ab34407; Abeam, Cambridge, Mass.), P-selectin (sc-6941; Santa Cruz Biotechnology, Santa Cruz, Calif.), β-tubulin (T-5293; Sigma), or mitofilin (MSM02; MitoSciences, Eugene, Oreg.). Specificity of the staining was confirmed for each antibody with isotype-matched nonimmune IgG. The cells were counterstained with either Alexa Fluor® 488 phalloidin or Alexa Fluor® 555 WGA conjugate as described in the previous paragraph. To assess mitochondrial function, use was made of MitoTracker® Red CM-H2XRos (M7513; Invitrogen), a reduced probe that fluoresces when it enters actively respiring mitochondria. For these studies, MitoTracker® (1 μM) was incubated with the live platelets one hour before the end of the experiment.

CC1=C(/C=C/C(C)=C\C=C\C(C)=C\C(=O)O)C(C)(C)CCC1 [9-cis retinoic acid]
RT activity in platelets [1]: inhibited

thrombopoietin: key regulator of bone marrow-dependent thrombopoiesis
number of newly-formed cell bodies extending from cultured platelets / progeny formation [2]: no effect

Cc1ccnc2c1NC(=O)c1cccnc1N2C1CC1 [nevirapine]
RT activity in platelets [1]: inhibited

Nc1ncnc2c1ncn2[C@@H]1O[C@H](COP(=O)(O)OP(=O)(O)O)[C@@H](O)[C@H]1O [ADP]
surface P-selectin expression in platelets that developed new cell bodies [3]: markedly increased

thrombin
number of newly-formed cell bodies extending from cultured platelets / progeny formation [2]: did not develop new cells bodies; also recorded: blocks | surface P-selectin expression in platelets that developed new cell bodies [3]: markedly increased

cytocholasin D
number of newly-formed cell bodies extending from cultured platelets / progeny formation [2]: inhibited
